Measurements: US6852715B1, “Indolocarbazole alkaloids from a marine actinomycete” (Instituto Biomar S.A., priority 1909, dated 2005)

What was measured:
Assay type in all cases: cell-based
[1] = system: P-388D1 (suspension culture of a lymphoid neoplasm from DBA/2 mouse); test: In vitro antitumor activity, P-388D1 cell growth; conditions: P388D1 cells, three days of incubation at 37° C., growth vs control wells without drug
Description: (§1) The antitumor activities of IB-97224 and IB-97225 have been determined in vitro in cell cultures of mouse leukemia P-388D1, human lung carcinoma A-549, human colon carcinoma HT-29 and human melanoma SK-MEL-28. The procedure was carried out using the methodology described by Bergeron, et al. (1984), and by Schroeder, et al. (1981).
(§2) Biological activity: The antitumor cells employed have been P-388D1 (suspension culture of a lymphoid neoplasm from DBA/2 mouse), A-549 (monolayer culture of a human macrocytic lung carcinoma), HT-29 (monolayer culture of a human colon carcinoma), and SK-MEL-28 (monolayer culture of a human melanoma). P-388D1 cells were seeded into 16 mm wells at 1×10^4 cells per well in 1 ml aliquots of MEM 5FCS containing the indicated concentration of drug. A separate set of cultures without drug was seeded as control of growth to ensure that cells remained in exponential phase of growth. All determinations were carried out duplicated. After three days of incubation at 37° C. in 10% CO2 atmosphere with 98% humidity, the IC50 was calculated by comparing the growth in wells with drug with the growth in control wells without the drug. […] The IC50 was calculated by comparing the growth in wells with drug with the growth in control wells without the drug.

[2] = system: A-549 (monolayer culture of a human macrocytic lung carcinoma); test: In vitro antitumor activity, A-549 cell growth (Crystal Violet); conditions: A-549 cells, three days of incubation at 37° C., Crystal Violet staining
Description: as §1, §2

[3] = system: HT-29 (monolayer culture of a human colon carcinoma); test: In vitro antitumor activity, HT-29 cell growth (Crystal Violet); conditions: HT-29 cells, three days of incubation at 37° C., Crystal Violet staining
Description: as §1, §2

[4] = system: SK-MEL-28 (monolayer culture of a human melanoma); test: In vitro antitumor activity, SK-MEL-28 cell growth (Crystal Violet); conditions: SK-MEL-28 cells, three days of incubation at 37° C., Crystal Violet staining
Description: as §1, §2

Structure (SMILES) | IC50 [1] [nM] | IC50 [2] [nM] | IC50 [3] [nM] | IC50 [4] [nM]
CO[C@H]1[C@@H](N(C)C)[C@H](O)C2OC1(C)n1c3ccccc3c3c4c(c5c6ccccc6n2c5c31)C(=O)NC4 (some centres unmarked) [IB-97224, 4′N-methyl-5′-hydroxystaurosporine] | 40 | 2 | 4 | 4
CN[C@H]1[C@H](O)[C@@H]2O[C@](C)([C@H]1OC)n1c3ccccc3c3c4c(c5c6ccccc6n2c5c31)C(=O)NC4 [IB-97225, 5′-hydroxystaurosporine] | 20 | 2 | 4 | 2
